# From ChEMBL document CHEMBL1201862, “PubChem BioAssay data set” (2004)
# Calls of active or inactive are those of the source.
# Experiments:
# [1] = system: Jurkat; assay: blockers of NF-kB activation in T cells – Jurkat, luciferase reporter, luminescence, B- and T-cell, dose response (AID 489004); assay type: functional, cell-based; details: Homo sapiens;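 note: NF-kB luciferase reporter Jurkat cells stimulated with PMA plus ionomycin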
# [2] = HEK-293T viability loss, compound-treated – cell-based, uHTS hits, cytotoxicity control for B/T-cell NF-kB inhibitor project, dose response (AID 489019); assay type: functional;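 note: IC50 reflects cytotoxicity as loss of cell viability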
# [3] = system: INS1; assay: INS-1E survival protection against cytokine death – cell-based, luminescence, retest, dose response (AID 449756); assay type: functional; details: Rattus norvegicus;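 note: cell death triggered by IL-1 beta plus TNF-alpha plus IFN-gamma mixture; protective hits raise ATP signal compared with cytokine alone wells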
# [4] = target: COUP transcription factor 2 (Homo sapiens, UniProt P24468); assay: Luminescence-based cell-based high throughput dose response assay to identify inhibitors of COUP-TFII (NR2F2).; assay type: functional;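 note: HEK293 cells transiently cotransfected with COUP-TFII expression vector and reporter; luciferase reporter luminescence driven by COUP-TFII from the pX2-168 reporter plasmid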
# Sequence of COUP transcription factor 2 (P24468 whole entry): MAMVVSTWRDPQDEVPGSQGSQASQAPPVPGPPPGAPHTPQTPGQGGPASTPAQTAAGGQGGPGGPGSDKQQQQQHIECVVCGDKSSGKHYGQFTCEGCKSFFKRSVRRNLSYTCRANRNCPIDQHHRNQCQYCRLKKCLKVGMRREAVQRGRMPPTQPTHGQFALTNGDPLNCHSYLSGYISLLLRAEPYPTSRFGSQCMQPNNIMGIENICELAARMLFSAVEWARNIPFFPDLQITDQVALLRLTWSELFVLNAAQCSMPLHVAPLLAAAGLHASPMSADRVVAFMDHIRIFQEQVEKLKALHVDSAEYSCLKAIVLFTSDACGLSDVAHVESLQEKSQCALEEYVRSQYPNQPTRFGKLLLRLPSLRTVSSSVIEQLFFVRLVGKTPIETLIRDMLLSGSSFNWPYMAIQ
# [5] = target: Induced myeloid leukemia cell differentiation protein Mcl-1 (Homo sapiens, UniProt Q07820); assay type: functional
# Sequence of Induced myeloid leukemia cell differentiation protein Mcl-1 (Q07820 whole entry): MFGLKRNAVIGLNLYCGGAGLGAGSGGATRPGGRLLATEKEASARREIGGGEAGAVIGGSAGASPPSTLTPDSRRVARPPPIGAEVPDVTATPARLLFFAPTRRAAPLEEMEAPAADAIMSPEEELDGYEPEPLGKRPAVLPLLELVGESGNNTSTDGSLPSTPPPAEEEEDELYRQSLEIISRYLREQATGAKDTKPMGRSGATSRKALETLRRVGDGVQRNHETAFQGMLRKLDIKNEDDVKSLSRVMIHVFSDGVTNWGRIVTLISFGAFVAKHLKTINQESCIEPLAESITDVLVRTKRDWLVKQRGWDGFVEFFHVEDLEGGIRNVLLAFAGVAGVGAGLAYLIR
# [6] = target: Eukaryotic translation initiation factor 4E (Mus musculus, UniProt P63073); assay: blockers of eIF4G binding by eIF4E – biochemical, TR-FRET, dose response (AID 855); assay type: functional;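 note: potency for disrupting eIF4E binding to eIF4GI seen as loss of FRET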
# Sequence of Eukaryotic translation initiation factor 4E (P63073 whole entry): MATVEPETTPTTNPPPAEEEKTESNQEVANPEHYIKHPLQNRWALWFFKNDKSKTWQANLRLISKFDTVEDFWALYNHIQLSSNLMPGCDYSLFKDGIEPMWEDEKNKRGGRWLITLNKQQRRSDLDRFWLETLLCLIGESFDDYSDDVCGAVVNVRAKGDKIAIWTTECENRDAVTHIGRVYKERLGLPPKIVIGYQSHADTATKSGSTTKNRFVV
# [7] = target: T1, Hexokinase HKDC1 (Homo sapiens, UniProt Q2TB90); assay: inhibition of HKDC1 glucose phosphorylation – biochemical, W721R variant, dose response (AID 504729); assay type: functional
# T1 sequence (Q2TB90 whole entry): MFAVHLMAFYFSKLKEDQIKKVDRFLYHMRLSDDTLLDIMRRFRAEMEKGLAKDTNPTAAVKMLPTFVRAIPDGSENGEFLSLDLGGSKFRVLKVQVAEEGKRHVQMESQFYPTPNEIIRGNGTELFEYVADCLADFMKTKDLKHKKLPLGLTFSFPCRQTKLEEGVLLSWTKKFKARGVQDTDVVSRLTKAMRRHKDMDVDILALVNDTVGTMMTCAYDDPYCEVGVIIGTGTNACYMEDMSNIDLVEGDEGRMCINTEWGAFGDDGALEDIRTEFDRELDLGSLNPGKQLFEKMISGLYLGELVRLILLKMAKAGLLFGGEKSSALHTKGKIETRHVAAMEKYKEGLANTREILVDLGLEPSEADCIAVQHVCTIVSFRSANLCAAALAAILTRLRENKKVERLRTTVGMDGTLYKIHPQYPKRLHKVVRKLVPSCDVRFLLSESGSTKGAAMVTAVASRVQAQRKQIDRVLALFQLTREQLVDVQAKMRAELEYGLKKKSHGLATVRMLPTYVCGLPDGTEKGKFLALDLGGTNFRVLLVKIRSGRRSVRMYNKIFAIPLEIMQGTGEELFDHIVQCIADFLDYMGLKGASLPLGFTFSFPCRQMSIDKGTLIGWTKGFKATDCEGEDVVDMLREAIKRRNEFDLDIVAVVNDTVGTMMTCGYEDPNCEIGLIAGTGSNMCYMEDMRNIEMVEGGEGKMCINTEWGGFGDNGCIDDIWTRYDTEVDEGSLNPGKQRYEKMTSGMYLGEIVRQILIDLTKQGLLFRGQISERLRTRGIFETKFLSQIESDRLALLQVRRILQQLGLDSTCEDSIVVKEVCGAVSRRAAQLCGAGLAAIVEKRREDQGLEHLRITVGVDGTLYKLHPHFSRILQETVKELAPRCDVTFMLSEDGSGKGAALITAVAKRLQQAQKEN
# [8] = target: T2, Lysine-specific demethylase 4C (Homo sapiens, UniProt Q9H3R0); assay: inhibition of JMJD2C H3K9me3 demethylation – biochemical, DELFIA europium, cherry-picked samples, dose response (AID 488835); assay type: functional
# T2 sequence (Q9H3R0 whole entry): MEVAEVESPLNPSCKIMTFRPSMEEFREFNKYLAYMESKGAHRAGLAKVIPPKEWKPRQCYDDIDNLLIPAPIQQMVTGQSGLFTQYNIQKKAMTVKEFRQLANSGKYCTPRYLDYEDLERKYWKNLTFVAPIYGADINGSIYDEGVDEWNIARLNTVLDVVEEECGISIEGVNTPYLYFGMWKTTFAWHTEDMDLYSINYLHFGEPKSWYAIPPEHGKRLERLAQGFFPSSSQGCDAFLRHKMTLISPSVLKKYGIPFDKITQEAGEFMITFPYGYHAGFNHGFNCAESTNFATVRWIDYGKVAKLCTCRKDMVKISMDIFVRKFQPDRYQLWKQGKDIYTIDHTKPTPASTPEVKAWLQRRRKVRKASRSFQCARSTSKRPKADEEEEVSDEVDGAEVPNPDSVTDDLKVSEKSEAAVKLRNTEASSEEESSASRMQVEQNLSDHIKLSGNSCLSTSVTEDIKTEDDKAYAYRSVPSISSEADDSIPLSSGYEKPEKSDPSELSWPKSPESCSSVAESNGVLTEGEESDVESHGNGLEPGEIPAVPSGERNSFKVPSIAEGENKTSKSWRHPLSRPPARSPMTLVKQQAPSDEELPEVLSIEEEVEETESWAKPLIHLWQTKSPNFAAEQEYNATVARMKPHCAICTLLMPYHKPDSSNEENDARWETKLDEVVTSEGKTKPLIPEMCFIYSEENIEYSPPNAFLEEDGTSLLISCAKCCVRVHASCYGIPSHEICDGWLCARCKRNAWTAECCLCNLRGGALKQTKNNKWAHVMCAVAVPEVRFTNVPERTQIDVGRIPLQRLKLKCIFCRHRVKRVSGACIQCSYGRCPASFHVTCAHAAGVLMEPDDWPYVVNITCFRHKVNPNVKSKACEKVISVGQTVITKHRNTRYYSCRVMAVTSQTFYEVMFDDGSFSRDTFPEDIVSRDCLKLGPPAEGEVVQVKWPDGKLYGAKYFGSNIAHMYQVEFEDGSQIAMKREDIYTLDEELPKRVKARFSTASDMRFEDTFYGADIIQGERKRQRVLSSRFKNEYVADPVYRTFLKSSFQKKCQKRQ
# [9] = target: Hexokinase-1 (Homo sapiens, UniProt P19367); assay: SAR analysis of small molecule inhibitors of hexokinase domain containing I (HKDC1) in the hexokinase 1 selectivity assay. [Related pubchem assays (depositor defined):AID493160, AID493190]; assay type: functional
# [10] = target: T1, Hexokinase HKDC1; assay: SAR analysis of small molecule inhibitors of hexokinase domain containing I (HKDC1). [Related pubchem assays (depositor defined):AID493160, AID493190]; assay type: functional
# [11] = decrease of insulin promoter-GFP reporter – imaging, high-content screening, mouse beta cells (AID 1628); assay type: functional; details: MIN6
# [12] = MIN6 cell viability loss – mouse insulinoma, cytotoxicity control, dose response (AID 2122); assay type: functional;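 note: confirmatory high-throughput counterscreen run to flag cytotoxic compounds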
# [13] = target: T3, Rac GTPase-activating protein 1 (Homo sapiens, UniProt Q9H0H5); assay: blockers of MgcRacGAP-driven Rac1 GTP hydrolysis – biochemical, ADP Hunter fluorescence, primary and confirmatory, confirmation (AID 624330); assay type: functional
# T3 sequence (Q9H0H5 whole entry): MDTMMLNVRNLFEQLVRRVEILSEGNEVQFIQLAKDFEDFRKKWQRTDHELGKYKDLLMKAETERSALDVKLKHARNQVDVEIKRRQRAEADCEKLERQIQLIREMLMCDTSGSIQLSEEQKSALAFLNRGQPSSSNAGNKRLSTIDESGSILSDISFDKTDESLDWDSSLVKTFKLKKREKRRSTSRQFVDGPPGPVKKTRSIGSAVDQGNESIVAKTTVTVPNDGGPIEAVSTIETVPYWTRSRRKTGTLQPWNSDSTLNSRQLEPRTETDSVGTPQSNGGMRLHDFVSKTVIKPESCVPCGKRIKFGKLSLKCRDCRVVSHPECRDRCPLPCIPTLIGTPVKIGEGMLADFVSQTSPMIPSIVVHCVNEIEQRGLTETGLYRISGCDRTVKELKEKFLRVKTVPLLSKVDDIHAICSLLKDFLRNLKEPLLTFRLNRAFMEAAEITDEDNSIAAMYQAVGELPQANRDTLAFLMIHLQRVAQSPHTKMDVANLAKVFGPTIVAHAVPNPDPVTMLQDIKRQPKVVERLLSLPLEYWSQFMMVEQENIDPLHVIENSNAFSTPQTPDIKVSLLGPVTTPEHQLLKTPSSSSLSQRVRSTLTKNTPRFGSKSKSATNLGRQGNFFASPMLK
# [14] = system: HEK293; assay: cells; details: Homo sapiens
# [15] = system: HEK293; assay: cells; details: Homo sapiens; remark: listed apart in the source
# [16] = Luminescence Cell-Based Dose Confirmation HTS to Identify Activators of 5'UTR Stem-Loop Driven Alpha-Synuclein mRNA Translation in H4 Neuroglioblastoma Cells. [Related pubchem assays: 1829 (Project Summary), 1814 (Primary HTS)]; assay type: functional
# [17] = Luminescence Cell-Based Dose Response HTS to Identify Activators of Luciferase Translation or Activity in H4 […] Cells. [Related pubchem assays: 1829 (Project Summary), 1814 (Primary HTS)]; assay type: functional
# [18] = system: H4; assay: Luminescence Cell-Based Dose Response HTS to Identify Activators of 5'UTR Stem-Loop Driven Prion Protein mRNA Translation in H4 Neuroglioblastoma Cells. [Related pubchem assays: 1829 (Project Summary), 1814 (Primary HTS)]; assay type: functional; details: Homo sapiens
# [19] = system: HeLa; assay: ATP-based viability loss in HeLa cells – cell-based, CellTiter-Glo luminescence, cherry-pick samples, cytotoxicity control for MITF activator project, dose response (AID 540259); assay type: functional; details: Homo sapiens
# [20] = target: Dual specificity protein kinase CLK1 (Homo sapiens, UniProt P49759); assay: inhibition of human CLK1 activity – biochemical, cherry-picked samples, selectivity assay for Dyrk1A inhibitor project, dose response (AID 588811)
# Sequence of Dual specificity protein kinase CLK1 (P49759 whole entry): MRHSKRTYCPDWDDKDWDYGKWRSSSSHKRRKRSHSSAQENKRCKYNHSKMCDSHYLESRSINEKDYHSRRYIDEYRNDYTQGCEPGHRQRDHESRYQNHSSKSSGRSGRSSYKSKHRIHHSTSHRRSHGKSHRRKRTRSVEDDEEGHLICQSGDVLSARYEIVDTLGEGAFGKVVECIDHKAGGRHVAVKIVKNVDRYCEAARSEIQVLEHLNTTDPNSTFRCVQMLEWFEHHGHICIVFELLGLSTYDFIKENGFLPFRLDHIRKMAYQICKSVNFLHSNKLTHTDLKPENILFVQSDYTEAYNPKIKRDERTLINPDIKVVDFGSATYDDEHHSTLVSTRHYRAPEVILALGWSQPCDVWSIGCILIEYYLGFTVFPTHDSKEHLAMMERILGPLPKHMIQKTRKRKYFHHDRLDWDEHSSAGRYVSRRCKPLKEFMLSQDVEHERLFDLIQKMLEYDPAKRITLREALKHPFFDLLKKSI
# [21] = target: Beta-2 adrenergic receptor (Homo sapiens, UniProt P07550); assay: ADRB2 activation measured by internalization – cell-based, FAP fluorogen, flow cytometry, cherry pick 1, dose response (AID 588763); assay type: functional
# Sequence of Beta-2 adrenergic receptor (P07550 whole entry): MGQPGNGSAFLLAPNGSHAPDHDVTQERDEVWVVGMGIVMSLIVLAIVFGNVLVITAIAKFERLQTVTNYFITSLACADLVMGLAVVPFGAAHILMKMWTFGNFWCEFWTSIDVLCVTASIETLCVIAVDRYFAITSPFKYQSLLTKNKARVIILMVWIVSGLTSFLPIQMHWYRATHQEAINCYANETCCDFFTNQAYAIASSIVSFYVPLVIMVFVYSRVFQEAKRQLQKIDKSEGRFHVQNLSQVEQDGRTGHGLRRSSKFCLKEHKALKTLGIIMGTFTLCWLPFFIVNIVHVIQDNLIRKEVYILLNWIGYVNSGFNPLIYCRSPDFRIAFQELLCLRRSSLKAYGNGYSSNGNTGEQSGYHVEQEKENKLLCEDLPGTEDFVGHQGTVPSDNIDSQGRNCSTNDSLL
# [22] = target: Dual specificity tyrosine-phosphorylation-regulated kinase 1A (Rattus norvegicus, UniProt Q63470); assay type: biochemical, Homo sapiens
# [23] = target: Beta-galactosidase (Escherichia coli, UniProt Q8VNN2); assay: PubChem AID 485352; assay type: functional
# Sequence of Beta-galactosidase (Q8VNN2 whole entry): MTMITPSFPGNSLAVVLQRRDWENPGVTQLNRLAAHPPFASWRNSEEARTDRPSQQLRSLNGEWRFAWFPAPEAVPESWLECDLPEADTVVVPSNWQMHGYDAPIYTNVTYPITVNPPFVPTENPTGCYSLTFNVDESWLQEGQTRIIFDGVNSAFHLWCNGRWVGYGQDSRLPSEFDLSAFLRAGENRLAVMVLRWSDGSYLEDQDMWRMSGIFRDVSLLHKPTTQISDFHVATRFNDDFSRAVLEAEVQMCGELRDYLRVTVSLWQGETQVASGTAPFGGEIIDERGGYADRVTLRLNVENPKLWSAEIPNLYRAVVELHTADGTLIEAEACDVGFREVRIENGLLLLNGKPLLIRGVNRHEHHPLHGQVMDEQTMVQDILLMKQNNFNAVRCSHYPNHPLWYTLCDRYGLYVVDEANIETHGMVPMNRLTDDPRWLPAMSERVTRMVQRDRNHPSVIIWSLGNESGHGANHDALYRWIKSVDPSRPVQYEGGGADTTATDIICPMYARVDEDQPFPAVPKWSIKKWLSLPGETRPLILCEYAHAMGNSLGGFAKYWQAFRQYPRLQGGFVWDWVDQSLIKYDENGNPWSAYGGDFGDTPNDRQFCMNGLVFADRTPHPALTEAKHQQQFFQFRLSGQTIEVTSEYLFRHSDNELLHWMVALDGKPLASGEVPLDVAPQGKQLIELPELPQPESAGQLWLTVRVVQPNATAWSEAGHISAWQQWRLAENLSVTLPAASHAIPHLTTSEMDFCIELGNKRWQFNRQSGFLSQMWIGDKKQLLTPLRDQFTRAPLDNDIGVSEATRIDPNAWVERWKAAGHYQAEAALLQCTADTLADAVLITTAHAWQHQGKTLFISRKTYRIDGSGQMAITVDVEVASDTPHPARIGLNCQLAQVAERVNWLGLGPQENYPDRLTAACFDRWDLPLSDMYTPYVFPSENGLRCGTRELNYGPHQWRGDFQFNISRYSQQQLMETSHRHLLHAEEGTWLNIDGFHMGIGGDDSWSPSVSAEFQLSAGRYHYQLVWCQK
# [24] = target: Type-1 angiotensin II receptor (Homo sapiens, UniProt P30556); assay: antagonism of angiotensin II type 1 receptor – cell-based, uHTS hits, selectivity assay for APJ receptor antagonist project, dose response (AID 463214); assay type: functional;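 note: antagonist potency against angiotensin II stimulated AT1 response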
# Sequence of Type-1 angiotensin II receptor (P30556 whole entry): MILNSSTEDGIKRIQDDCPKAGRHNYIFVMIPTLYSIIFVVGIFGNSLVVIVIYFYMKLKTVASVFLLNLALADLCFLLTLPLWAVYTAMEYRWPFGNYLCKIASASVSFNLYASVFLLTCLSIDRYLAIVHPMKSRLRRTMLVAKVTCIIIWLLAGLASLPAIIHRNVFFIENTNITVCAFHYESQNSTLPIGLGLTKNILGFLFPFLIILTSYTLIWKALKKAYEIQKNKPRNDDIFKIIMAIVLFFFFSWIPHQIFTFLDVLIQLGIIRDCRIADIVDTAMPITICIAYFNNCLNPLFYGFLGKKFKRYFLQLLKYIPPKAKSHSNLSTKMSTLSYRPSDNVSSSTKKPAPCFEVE
# [25] = target: Large T antigen (Simian virus 40, UniProt P03070); assay type: functional, Betapolyomavirus macacae;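 note: Confirmatory-stage PubChem screen for compounds that inhibit SV40 T antigen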
# Sequence of Large T antigen (P03070 whole entry): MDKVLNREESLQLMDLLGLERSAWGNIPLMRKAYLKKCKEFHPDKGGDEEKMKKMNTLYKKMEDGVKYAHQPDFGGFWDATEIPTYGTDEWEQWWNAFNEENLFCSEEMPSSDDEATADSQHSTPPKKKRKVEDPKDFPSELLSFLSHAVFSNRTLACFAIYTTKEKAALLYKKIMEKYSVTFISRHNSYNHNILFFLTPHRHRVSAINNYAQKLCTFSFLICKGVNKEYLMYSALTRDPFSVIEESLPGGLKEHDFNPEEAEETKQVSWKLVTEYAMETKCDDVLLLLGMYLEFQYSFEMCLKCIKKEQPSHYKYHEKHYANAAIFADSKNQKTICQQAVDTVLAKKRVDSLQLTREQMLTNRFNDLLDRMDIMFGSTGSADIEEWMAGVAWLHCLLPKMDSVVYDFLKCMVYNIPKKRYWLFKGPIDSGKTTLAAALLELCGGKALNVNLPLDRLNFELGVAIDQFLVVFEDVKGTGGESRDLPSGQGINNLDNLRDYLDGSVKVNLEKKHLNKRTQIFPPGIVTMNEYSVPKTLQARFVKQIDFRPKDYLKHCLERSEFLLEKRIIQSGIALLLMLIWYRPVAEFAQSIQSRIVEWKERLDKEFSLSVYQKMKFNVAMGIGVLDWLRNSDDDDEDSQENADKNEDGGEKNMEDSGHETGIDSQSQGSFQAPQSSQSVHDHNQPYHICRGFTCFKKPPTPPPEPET
# [26] = target: T4, Microphthalmia-associated transcription factor (Homo sapiens, UniProt O75030); assay: reducers of TRPM1 reporter luminescence, concentration series – cell-based, SK-MEL-5, cherry-picked, set 3, MITF inhibitor project, dose response (AID 493073); assay type: functional;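 note: SK-MEL-5 melanoma cells with luciferase driven by the MITF target TRPM1 promoter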
# T4 sequence (O75030 whole entry): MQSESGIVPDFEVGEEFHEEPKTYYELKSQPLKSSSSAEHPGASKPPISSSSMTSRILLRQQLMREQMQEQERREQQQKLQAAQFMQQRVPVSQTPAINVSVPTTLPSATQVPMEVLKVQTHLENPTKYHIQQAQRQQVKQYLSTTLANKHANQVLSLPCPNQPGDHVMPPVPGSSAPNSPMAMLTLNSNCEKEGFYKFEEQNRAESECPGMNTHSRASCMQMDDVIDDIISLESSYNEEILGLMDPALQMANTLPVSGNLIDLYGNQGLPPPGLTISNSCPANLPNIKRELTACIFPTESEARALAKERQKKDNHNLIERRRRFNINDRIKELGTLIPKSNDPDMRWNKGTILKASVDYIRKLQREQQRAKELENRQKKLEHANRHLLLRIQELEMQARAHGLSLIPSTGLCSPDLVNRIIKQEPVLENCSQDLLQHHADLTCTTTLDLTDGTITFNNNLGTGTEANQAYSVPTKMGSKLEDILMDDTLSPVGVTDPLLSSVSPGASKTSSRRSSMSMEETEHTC
# [27] = target: Heat shock protein HSP 90-alpha (Homo sapiens, UniProt P07900); assay type: functional, organism-based
# [28] = system: Vero; assay: viability of Vero cells under compound – cytotoxicity control for flavivirus capping enzyme inhibitors (AID 588742); assay type: functional; details: Chlorocebus sabaeus
# [29] = system: A-375; assay: MITF: Counter assay: A375 proliferation Measured in Cell-Based System Using Plate Reader - 2084-03_Inhibitor_Dose_DryPowder_Activity. [Related pubchem assays (depositor defined):AID488944]; assay type: functional; details: Homo sapiens
# [30] = target: Genome polyprotein (dengue virus type 2, UniProt P29990); assay: flavivirus cap methylation enzyme inhibition – biochemical, confirmation dose response, primary screen (AID 588689); assay type: functional
# Sequence of Genome polyprotein (P29990 2492-3391 limits assumed): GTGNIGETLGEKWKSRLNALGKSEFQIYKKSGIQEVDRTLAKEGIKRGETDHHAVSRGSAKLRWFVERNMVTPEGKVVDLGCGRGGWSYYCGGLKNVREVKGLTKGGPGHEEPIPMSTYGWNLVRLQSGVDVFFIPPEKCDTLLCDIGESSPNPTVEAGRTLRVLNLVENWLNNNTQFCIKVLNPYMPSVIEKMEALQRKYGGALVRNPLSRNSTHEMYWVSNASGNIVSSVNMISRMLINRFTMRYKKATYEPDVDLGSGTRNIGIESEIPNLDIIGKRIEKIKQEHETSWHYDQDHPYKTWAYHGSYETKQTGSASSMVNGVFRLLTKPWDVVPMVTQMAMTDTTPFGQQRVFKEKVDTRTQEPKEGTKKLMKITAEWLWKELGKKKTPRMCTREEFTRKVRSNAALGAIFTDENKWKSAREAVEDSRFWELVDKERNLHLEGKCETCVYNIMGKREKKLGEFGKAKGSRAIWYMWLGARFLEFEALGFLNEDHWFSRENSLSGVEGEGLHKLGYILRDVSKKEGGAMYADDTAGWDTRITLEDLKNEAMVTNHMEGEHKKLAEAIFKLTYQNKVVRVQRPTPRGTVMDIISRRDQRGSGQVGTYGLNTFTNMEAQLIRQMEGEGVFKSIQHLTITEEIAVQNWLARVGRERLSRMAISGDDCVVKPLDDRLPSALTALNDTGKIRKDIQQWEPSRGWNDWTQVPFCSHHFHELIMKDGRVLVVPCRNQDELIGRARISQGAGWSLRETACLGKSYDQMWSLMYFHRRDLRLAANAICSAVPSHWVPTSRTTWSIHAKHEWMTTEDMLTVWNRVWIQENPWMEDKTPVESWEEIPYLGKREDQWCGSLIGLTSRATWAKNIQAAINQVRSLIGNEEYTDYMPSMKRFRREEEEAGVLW
structure (smiles),measurement,setting,value
CCCCCCn1ccc(=N)cc1,IC50,[1],> 80 µM (inactive)
same,IC50,[2],13 µM (active)
same,AC50,[3],3.13 µM (active)
same,IC50,[4],15.8 µM (inactive)
Cc1ccc(C)c(S(=O)(=O)Nc2cc(SCC(=O)O)c(O)c3ccccc23)c1,IC50,[5],13.8 µM (active)
same,IC50,[6],> 64 µM (inactive)
same,IC50,[7],2.96 µM (active)
same,AC50,[8],4.94 µM (active)
same,IC50,[9],> 80 µM (inactive)
same,AC50,[3],4.28 µM (active)
same,IC50,[10],10.2 µM (active)
Nc1ccccc1Nc1cccc(C(F)(F)F)c1,IC50,[11],4.45 µM (active)
same,IC50,[12],5.09 µM (active)
same,IC50,[13],89 µM (active)
same,EC50,[14],> 59.6 µM (inactive)
same,EC50,[15],> 59.6 µM (inactive)
COC(=O)c1ccc(N2CCN(c3ccccc3)CC2)nc1,EC50,[16],> 120 µM (not active)
same,EC50,[17],> 120 µM (not active)
same,EC50,[18],0.114 µM (active)
same,AC50,[19],53.8 µM (active)
Cc1nc(CNc2ncnc3ccc(-c4ccc5c(c4)OCO5)cc23)cs1,AC50,[20],0.0354 µM (active)
Cc1ccc(OCc2nnc(SCc3nc4ccccc4[nH]3)n2Cc2ccco2)cc1,EC50,[21],1.08 µM (active)
O=C(Nc1ccc2c[nH]nc2c1)c1ccccc1F,EC50,[18],> 120 µM (not active)
same,AC50,[22],20.8 µM (active)
O=C(CCC(=O)OCC(=O)c1cccc([N+](=O)[O-])c1)NC1CCCCC1,EC50,[23],> 40 µM (inactive)
same,IC50,[24],25.2 µM (not active)
O=C(O)/C=C/C(=O)c1ccc2c(c1)CCc1ccccc1-2,IC50,[25],34.5 µM (active)
same,AC50,[26],15 µM (active)
same,AC50,[27],16.6 µM (active)
same,CC50,[28],17.2 µM (active)
same,AC50,[29],35 µM (active)
same,IC50,[30],22.9 µM (active)
